Where “and” joins values, the source holds several entries; their conditions need not be identical. Equal entries are not always repeated.
What was measured:
[1] = test system: rats with anoxia-induced amnesia; conditions: Non-patent Literature 1; cited from earlier work
[2] = test system: patients with Alzheimer's disease or patients with cerebrovascular dementia; conditions: reported in literature; cited from earlier work
[3] = test system: four-vessel occlusion model of rats; test: Morris water maze Transfer test in four-vessel occlusion model; assay type: in vivo, rat; conditions: 4-VO rats, oral 28 d: arundic acid 30, taltirelin 10, combination 10+3 mg/kg/day; for Residence time in Zone 3: Table 6
Method: The water temperature of the water maze during the experiment was kept at 23° C. […] A Transfer test was performed 3 days after the final administration of test drugs. For the Transfer test, the platform was removed, and the pool was filled with water to a water depth of 31 cm. To enable the rats to memorize surrounding various spatial arrangements, cues, such as posters and photographs, were placed on the wall. The cues always remained at the same locations during the experiment (FIG. 1: a plan view of Morris water maze, and the laboratory layout). Three days after the final administration of the test drug, the platform was removed and a Transfer test in which the pool was filled with water to a water depth of 31 cm was performed. […] Each rat was given only one trial, and the time was 180 seconds. The starting point was on the side opposite to the platform (see FIG. 1). In the Transfer test, the time spent in each Zone and the number of times the rats crossed over the platform location were determined. The behaviors of the rats in each trial were automatically analyzed with a CCD camera and the SMART (produced by Kyoto […]) behavioral analysis program by binarization of the white color of rats' fur and black ash color of the surrounding area. Significant differences between the groups in spatial memory according to the Morris water maze method were determined by the nonparametric Dunnett's multiple comparison test. 6) After completion of the Morris water maze test, the brain of each rat was perfusion-fixed with 4% paraformaldehyde. The details are as follows.

[4] = test system: rats with lesioned bilateral regions including the ventral globus pallidus, substantia innominata, and preoptic area (BFs); conditions: Non-patent Literature 1; cited from earlier work
[5] = test system: hippocampal CA1 neuronal cells; test: HE staining of hippocampus CA1, degree of neuronal death; assay type: in vivo, rat; conditions: HE-stained specimens after 28 days of administration; arundic acid 30, taltirelin 10, combination 10+3 mg/kg/day
Method: After completion of the Transfer test, the rats were anesthetized, and the chest cavity was opened to expose the heart. A ventricle was incised to insert a catheter from the heart to the carotid artery, and 50 mL or more of heparinized physiological saline was perfused. Subsequently, 50 mL or more of 4% paraformaldehyde phosphate buffer was perfused. The perfusion procedures were performed with ligation of the main artery. After perfusion-fixation, the brain was removed and immersion-fixed in 4% paraformaldehyde phosphate buffer.
20-μm serial thick frozen sections were prepared from this brain using a cryostat. Alternating serial sections were stained with hematoxylin-eosin. The degree of neuronal death in the stained tissue was semi-quantitatively evaluated under an optical microscope.

reactive astrocytes = conditions: Patent Literature 2; cited from earlier work

CN1C(=O)C[C@@H](C(=O)N[C@@H](Cc2c[nH]cn2)C(=O)N2CCC[C@H]2C(N)=O)NC1=O [Taltirelin, N-[(4S)-1-methyl-2,6-dioxohexahydropyrimidine-4-carbonyl]-L-histidyl-L-prolinamide]
Memory retrieval, one-trial passive avoidance learning test [1]: improve memory retrieval
Improvement effect compared with TRH [2]: higher improvement effect thereon than TRH
Residence time in Zone 1 ([3]; Mean ± S.E.): 39.3 ± 5.4 s
Residence time in Zone 1 (%) ([3]; Mean ± S.E.): 21.7 ± 3.0%
Residence time in Zone 2 ([3]; Mean ± S.E.): 34.2 ± 10.3 s
Residence time in Zone 2 (%) ([3]; Mean ± S.E.): 19.0 ± 5.8%
Residence time in Zone 3 (%) ([3]; Mean ± S.E.): 31.6 ± 2.4%
Residence time in Zone 4 ([3]; Mean ± S.E.): 50.2 ± 8.5 s
Residence time in Zone 4 (%) ([3]; Mean ± S.E.): 27.6 ± 4.6%
Transfer test Platform Crossing Times ([3]; Mean ± S.E.): 5.3 ± 1.4
Transfer test Residence time in Zone 3 ([3]; Mean ± S.E.): 57 ± 4.1 s
Residence time in Zone 3 ([3]; Mean ± S.E.): 57.1 ± 4.1 s
Residence time in Zone 3 ([3]; individual rat, 3 mg/kg/day): 58.5 s and 66.9 s and 47.1 s and 56 s
Residence time in Zone 1 ([3]; individual rat, 3 mg/kg/day): 24.5 s and 44.4 s and 38.6 s and 49.7 s
Residence time in Zone 1 (%) ([3]; individual rat, 3 mg/kg/day): 13.6% and 24.8% and 21.2% and 27.3%
Residence time in Zone 2 ([3]; individual rat, 3 mg/kg/day): 63 s and 30.4 s and 29.6 s and 14.1 s
Residence time in Zone 2 (%) ([3]; individual rat, 3 mg/kg/day): 35.1% and 17.0% and 16.2% and 7.7%
Residence time in Zone 3 (%) ([3]; individual rat, 3 mg/kg/day): 32.6% and 37.3% and 25.8% and 30.7%
Residence time in Zone 4 ([3]; individual rat, 3 mg/kg/day): 33.6 s and 37.5 s and 67 s and 62.5 s
Residence time in Zone 4 (%) ([3]; individual rat, 3 mg/kg/day): 18.7% and 20.9% and 36.8% and 34.3%
Transfer test Platform Crossing Times ([3]; individual rat, 3 mg/kg/day): 8 and 7 and 4 and 2
Memory retrieval, active avoidance learning test [4]: improve memory retrieval
Hippocampal CA1 neuronal cell death / regeneration, in words [5]: shedding was observed

CCCCCC[C@@H](CCC)C(=O)O [Arundic acid, (R)-(−)-2-propyloctanoic acid]
Residence time in Zone 1 ([3]; Mean ± S.E.): 41.6 ± 8.7 s
Residence time in Zone 1 (%) ([3]; Mean ± S.E.): 22.8 ± 4.3%
Residence time in Zone 2 ([3]; Mean ± S.E.): 42.0 ± 10.9 s
Residence time in Zone 2 (%) ([3]; Mean ± S.E.): 23.0 ± 5.5%
Residence time in Zone 3 (%) ([3]; Mean ± S.E.): 34.6 ± 5.1%
Residence time in Zone 4 ([3]; Mean ± S.E.): 34.9 ± 83 s
Residence time in Zone 4 (%) ([3]; Mean ± S.E.): 19.6 ± 4.7%
Transfer test Platform Crossing Times ([3]; Mean ± S.E.): 5.5 ± 1.4
Transfer test Residence time in Zone 3 ([3]; Mean ± S.E.): 62 ± 8.4 s
Residence time in Zone 3 ([3]; Mean ± S.E.): 61.9 ± 8.4 s
Residence time in Zone 3 ([3]; individual rat, 3 mg/kg/day): 82.9 s and 66.0 s and 43.6 s and 55.2 s
Residence time in Zone 1 ([3]; individual rat, 3 mg/kg/day): 24.0 s and 32.5 s and 63.9 s and 45.8 s
Residence time in Zone 1 (%) ([3]; individual rat, 3 mg/kg/day): 13.3% and 19.3% and 33.3% and 25.4%
Residence time in Zone 2 ([3]; individual rat, 3 mg/kg/day): 16.9 s and 34.4 s and 68.2 s and 48.3 s
Residence time in Zone 2 (%) ([3]; individual rat, 3 mg/kg/day): 9.4% and 20.4% and 35.5% and 26.8%
Residence time in Zone 3 (%) ([3]; individual rat, 3 mg/kg/day): 46.0% and 39.1% and 22.7% and 30.6%
Residence time in Zone 4 ([3]; individual rat, 3 mg/kg/day): 56.5 s and 35.7 s and 16.4 s and 31.0 s
Residence time in Zone 4 (%) ([3]; individual rat, 3 mg/kg/day): 31.3% and 21.2% and 8.5% and 17.2%
Transfer test Platform Crossing Times ([3]; individual rat, 3 mg/kg/day): 6 and 9 and 2 and 5
GABAA receptor responsiveness (reactive astrocytes): GABAA receptor responsiveness is recovered
Hippocampal CA1 neuronal cell death / regeneration, in words [5]: promoted regeneration of hippocampal CA1 neuronal cells

Reference: patent US10828303B2, “Composition comprising combination of TRH analog with arundic acid, and pharmaceutically acceptable salt of arundic acid” (Brivention Pharmaceutical (Shanghai) Inc., priority 2016, dated 2020)
